Literature values as cited in US20180256601A1, “URSODEOXYCHOLIC ACID AND BRAIN DISORDERS” (priority 2015, published 2018).
Entries after “also recorded” stand apart in the source; their conditions may differ.

How the values were obtained:
cell model of ALS = cell model of ALS (Vaz et al, 2015)
prion disease = details: Cortez et al, 2015
ALS patients = details: 1 g twice daily; 17 ALS patients
cellular model of HD = details: coincubation with 3-NP
[1] = oral; 450 mg UDCA, or complex containing 426 mg UDCA
[2] = not given; remark: listed apart in the source
[3] = post approval use
[4] = in vivo
[5] = worldwide postmarketing and clinical experience
[6] = in divided doses (Parry et al, 2010)
PBC patients = details: sixty PBC patients

## C[C@H](CCC(=O)NCC(=O)O)[C@H]1CC[C@H]2[C@@H]3[C@@H](O)C[C@@H]4C[C@H](O)CC[C@]4(C)[C@H]3CC[C@]12C [GUDCA, glycoursodeoxycholic acid]
Cell model of ALS
  mitochondrial dysfunction, caspase-9 activation, matrix metalloproteinase activation, nitrogen oxide (NO) generation: decrease

## C[C@H](CCC(=O)NCCS(=O)(=O)O)[C@H]1CC[C@H]2[C@@H]3[C@@H](O)C[C@@H]4C[C@H](O)CC[C@]4(C)[C@H]3CC[C@]12C [TUDCA, tauroursodeoxycholic acid]
Prion disease
  therapeutic effects in prion disease: variety of therapeutic effects
ALS patients
  Amyotrophic Lateral Sclerosis Functional Rating Scale Revised: significant improvements
Cellular model of HD
  mitochondrial cytochrome c release and mitochondrial membrane alterations: prevented
  reduction in apoptosis: ~80%

## C[C@H](CCC(=O)O)[C@H]1CC[C@H]2[C@@H]3[C@@H](O)C[C@@H]4C[C@H](O)CC[C@]4(C)[C@H]3CC[C@]12C [UDCA, Ursodeoxycholic Acid]
adults
  elimination half-life: 3 to 6 days
In vivo
  bile UDCA levels following discontinuation of therapy, as share of average steady state concentrations: 5 to 10%
On average, from starting therapy
  time to steady state concentrations: ≤ 3 weeks
oral
  fraction of oral dose excreted via the urine: 1%
Oral delivery, passive diffusion by the proximal jejunum and ileum
  fraction of exogenous UDCA absorbed: ~90%
[1]
  Cmax: 6.1 µg/mL
  t1/2(abs): 54 min
  tmax: 83 min
[2]; 18 ALS patients (Parry et al, 2010)
  correlation between serum concentrations 1 hour after dosing and cerebrospinal fluid concentrations 2 hours after dosing: strong statistically significant correlation
[2]; after oral administration
  time of serum level peak: 30 to 50 min
[2]; in vivo
  blood-brain barrier crossing: crosses the blood-brain barrier in a dose-dependent manner
[3]
  Adverse Reactions: Musculoskeletal and connective tissue disorders: Myalgia
  Adverse Reactions: Nervous system disorders: dizziness, headache
  Adverse Reactions: Respiratory, thoracic and mediastinal disorders: Cough
[3]; listed as ursodiol
  Adverse Reactions: Gastrointestinal disorders: abdominal discomfort,; also recorded: abdominal pain,; also recorded: constipation, diarrhea,; also recorded: dyspepsia, nausea,; also recorded: vomiting
  Adverse Reactions: General disorders and administration site conditions: malaise, peripheral; also recorded: edema, pyrexia
  Adverse Reactions: Immune System Disorders: Drug hypersensitivity; also recorded: edema, urticaria,; also recorded: laryngeal edema
  Adverse Reactions: Skin and subcutaneous tissue disorder: alopecia, pruritus, and rash
[4]
  percentage of UDCA in the bile pool after administration of exogenous UDCA: 55 to 60%
[5]
  frequency of common adverse reactions: abdominal discomfort, abdominal pain, alopecia, diarrhea, nausea, pruritus, rash: ≥ 1%
[6]
  dose well tolerated without significant neurotoxic effects: up to 50 mg/kg/day
PBC patients
  abdominal pain and asthenia: 1 patient
  anorexia: 1 patient
  dyspepsia: 2 patients
  esophagitis: 1 patient
  nausea: 3 patients
PBC patients; seven patients, nine adverse reactions
  patients who reported adverse reactions: 11.6%
